Results on one substance are retold here after patent publication US11306067B2, “Diphenyl substituted thiophene-2-amide derivatives and pharmaceutical compositions thereof useful as antimicrobial” (DENOVAMED INC., priority 2018, dated 2022).

In assay [1] the test system is Acinetobacter Baumannii ATCC 19606. Nature of the assay: Combination MIC of colistin for antibiotic adjuvant potential. Also noted: unit not given beside the values. The format is cell-based. To be noted: colistin alone; Acinetobacter ATCC 19606. As for the experimental part:
(§1) The MIC of colistin was determined against the bacteria specified below, by itself or in the presence of 1 ug/ml or 10 ug/ml of a compound disclosed herein (nd=not determined): […]

For assay [2], the system named is E. coli ATCC 25922. The assay is described as above. To be noted: colistin alone. Also on record: unit not given beside the values. The format is cell-based. As for the experimental part: as §1
The subject of assay [3] is Pseudomonas aeurginosa ATCC 27853. The assay is described as above. The format is cell-based. Also noted: unit not given beside the values. Particulars: colistin alone; Pseudomonas ATCC 27853. The procedure:
as §1

In assay [4] the test system is Klebsiella pneumoniae (Colistin Resistant) MMX8390. Described as above. To be noted: colistin alone; K. pneumoniae colistin resistant MMX8390. The assay is classed as cell-based. As for the experimental part: as §1
For assay [5], the system named is Klebsiella pneumoniae (Colistin Sensitive) MMX214. The assay is described as above. The format is cell-based. Particulars: colistin alone; K. pneumoniae colistin sensitive MMX214. The procedure: as §1
For assay [6], the system named is E. coli ATCC 25922. Also on record: unit not given beside the values. Particulars: colistin alone, unexplained range under the value, probably reference range; cited from earlier work.

As for colistin, the MIC of colistin turned out to be 0.25 in assay [1]; 0.25 with E. coli ATCC 25922 [2]; 0.25 in assay [3]; 16 in assay [4]; 2 in assay [5]. Also, the “MIC of colistin, range in parentheses” value in the assay on E. coli ATCC 25922 [6] was “(0.25-2)”.
